Legend:
cholesterol absorption = assay: Acute in vivo cholesterol absorption model: inhibition of 14C-cholesterol absorption into plasma, intestinally cannulated rats; set-up: species or system Male Sprague-Dawley rats; conditions: rat, relative to bile vehicle control
Protocol: Male Sprague-Dawley rats weighing 300-400 g were used. After an overnight fast, rats were anesthetized (Inactin, […] i.p.) for the duration of each study and were fitted with a cannula into the small intestine just below the pyloric valve. For the cannulation of the small intestine, a catheter (Surflo® i.v. catheter (18GX2″), Terumo Medical Corporation; Elkton, Md.) was inserted through the fundus of the stomach, advanced 1 cm beyond the pylorus, and ligated in place. Compounds were mixed in rat bile and delivered by bolus injection (1 mL) via the intestinal catheter into the small intestine.
One hour after the bile doses were delivered, three mL of an emulsion consisting of 2.23 mg/mL L-phosphatidylcholine and 11.8 mg/mL triolein in 19 mM sodium taurocholate (Sigma; St. Louis, Mo.) buffer (pH 6.4) containing 3 mg cholesterol and 1 mCi ^14C-cholesterol (NEN; Boston, Mass.) was delivered to each rat as a bolus via the intestinal cannula. Ninety minutes after the cholesterol emulsion was delivered, the rats were euthanized. Blood was collected and plasma was separated by centrifugation at 2000 rpm for 15 min at 4° C. Triplicate aliquots of plasma were analyzed ^14C radioactivity and inhibition of cholesterol absorption relative to bile vehicle control rats was determined.

[1] = molecular target: T1, Scavenger receptor, class B, type I (SR-BI) (Rattus norvegicus, UniProt P97943); assay: Expression cloning of rat intestinal epithelial cDNA library in BW5147 cells, stained with fluorescent compound, FACS; type: cell-based; conditions: two clones from two independent cDNA expression libraries, FACS-positive BW5147 cells
T1 construct: expressed in transfected cells; host or cells: mouse cell line BW5147, infected with pMX retrovirus packaged in BOSC23
T1 sequence (P97943 1-509): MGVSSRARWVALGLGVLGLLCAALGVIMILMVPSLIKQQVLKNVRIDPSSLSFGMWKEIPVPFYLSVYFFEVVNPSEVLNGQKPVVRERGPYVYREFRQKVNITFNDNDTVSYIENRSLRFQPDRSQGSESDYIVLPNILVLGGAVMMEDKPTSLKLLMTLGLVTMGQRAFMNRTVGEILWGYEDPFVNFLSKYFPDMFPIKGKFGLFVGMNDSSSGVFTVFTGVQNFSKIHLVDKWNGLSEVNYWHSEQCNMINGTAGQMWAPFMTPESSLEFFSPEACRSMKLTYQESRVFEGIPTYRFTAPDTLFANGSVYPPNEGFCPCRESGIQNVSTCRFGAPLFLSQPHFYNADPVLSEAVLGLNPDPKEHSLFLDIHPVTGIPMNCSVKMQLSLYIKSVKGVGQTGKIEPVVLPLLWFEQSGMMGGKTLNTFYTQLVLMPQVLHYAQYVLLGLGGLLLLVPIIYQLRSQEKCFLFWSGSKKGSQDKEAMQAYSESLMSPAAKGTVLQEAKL
From the text: The small intestine was removed from male CRL: CD BR rats. Intestinal epithelial cells were isolated by the method of Weiser (Weiser, M., 1973, JBC 248, 2536-2541) and the mRNA extracted. Poly A mRNA was purified and double stranded cDNA synthesized. Adapter linkers were ligated followed by size selection (>2 Kb) of the cDNA. The selected fraction of cDNA was ligated into the retroviral expression plasmid pMX, subsequently transformed into bacteria and grown on selective agar at a clonal density of −30,000/plate. Each pool of bacterial clones was collected and plasmid DNA prepared.
Individual pools of cDNA library were transformed into the retroviral packaging cell line BOSC23 and the resulting viral particles, containing the cDNA library, were used to infect the mouse cell line BW5147. Following infection BW5147 cells were stained with compound 1C and analyzed by fluorescent activated cell sorting (FACS). Positive staining cells (−01%) were recovered and re-cultured. The process of recovering positive staining cells was repeated after expansion of the cell population in culture and following the second round of FACS analysis individual cells were isolated by limiting dilution.
Individual clonal populations of cells were subjected to PCR using retroviral vector specific oligonucleotide primers designed to flank the multiple cloning site in which the cDNA library was cloned. […]

In the case of `O=C(CCCCCNC(=O)c1ccc(-c2c3ccc(=O)cc-3oc3cc(O)ccc23)c(C(=O)O)c1)NCC#Cc1ccc(N2C(=O)[C@H](CC[C@H](O)c3ccc(F)cc3)[C@H]2c2ccc(O[C@@H]3O[C@H](C(=O)O)[C@@H](O)[C@H](O)[C@H]3O)cc2)cc1` [IB], the “% Inhibition of [14C]-Cholesterol Absorption into Plasma” value (“% Inhibition” for short) (cholesterol absorption; dose 56 μg/kg in rat bile via intestinal catheter) is reported as 79% and the “% Inhibition” value (cholesterol absorption; dose 186 μg/kg in rat bile via intestinal catheter) is reported as 88%.

In the case of “[1-O-[4-[1-[4-[3-[[3-[2-[(3,5-DIMETHYL-1H-PYRROL-2-YL-.KAPPA.N)METHYLENE]-2H-PYRROL-5-YL-.KAPPA.N]-1-OXOPROPYL]AMINO]-1-PROPYNYL]PHENYL]-3(R)-[3(S)-HYDROXY-3-(4-FLUOROPHENYL)PROPYL]-2-OXO-4(S)-AZETIDINYL]PHENYL]-BETA-D-GLUCURONATO]DIFLUOROBORATE, HYDROGEN [IC]”, the “cellular receptor identified by expression cloning with the fluorescent compound” value [1] is reported as “identified as the cellular receptor”, the “% Inhibition” value (cholesterol absorption; dose 30 μg/kg in rat bile via intestinal catheter) is reported as 58% and the “% Inhibition” value (cholesterol absorption; dose 100 μg/kg in rat bile via intestinal catheter) is reported as 80%.
